{"source": "patent US20030236218A1", "about": "“Aryl phosphate derivatives of d4T with selective activity against adenovirus and HIV” (priority 2002, published 2003)", "key": {"[1]": {"experiment": "Stability in whole blood", "type": "in vitro ADME", "procedure": "The whole blood samples were placed in a 37° C. water bath, while plasma samples were stored at −20° C. At a predetermined time, an aliquot (100 μl) of spiked whole blood or plasma was extracted by adding 400 μl of acetone to induce precipitation of proteins, as described above."}, "[2]": {"conditions": "rats, cited from earlier work"}, "[3]": {"experiment": "Hydrolysis rate in alkali conditions", "type": "physicochemical", "procedure": "Statistical analysis. Each drug was tested at 6-7 different concentrations ranging from 0.0001 μM to 100 μM. Each assay was set up in triplicate wells and repeated 1-3 times. An IC50 value was calculated from each set of triplicate wells using nonlinear regression modeling of the exponential form of the linearized equation (Statview, SAS Institute, Inc., Cary, N.C.). Hydrolysis rates were determined by fitting single exponential decay equations to the disappearance of the compound in alkali conditions (all R^2 values greater than 0.85). The IC50 values obtained were correlated to the log transformed hydrolysis rate constants by fitting a linear model (JMP Software, SAS Institute Inc., Cary, N.C.). P-values less than 0.05 were deemed significant."}, "[4]": {"experiment": "Stability in plasma in the presence of selective esterase inhibitors", "conditions": "250 μM"}}}
{"compound": "COC(=O)C(C)NP(=O)(OC[C@@H]1C=C[C@H](n2cc(C)c(=O)[nH]c2=O)O1)Oc1ccc(Br)cc1", "note": "(some centres unmarked) [Compound 113, 5′-[4-Bromophenyl methoxylaninylphosphate]-2′, 3′-didehydro-3′-deoxy thymidine]", "values": [{"measurement": "time to complete decomposition in whole blood", "setting": "[1]; 250 μM, 37° C.", "value": "≤ 30", "unit": "min"}, {"measurement": "decomposed in whole blood", "setting": "[1]; 250 μM, 37° C., 5 minutes", "value": 68, "unit": "%"}, {"measurement": "decomposed in whole blood", "setting": "[1]; 250 μM, 37° C., 10 minutes", "value": 87, "unit": "%"}, {"measurement": "decomposed in whole blood", "setting": "[1]; 250 μM, 37° C., 15 minutes", "value": 92, "unit": "%"}, {"measurement": "stability in whole blood (in words)", "setting": "[1]; spiked whole blood 37° C., 250 μM compound 113, 100 μM Ala-d4T-MP (followed for 1 day)", "value": "very unstable"}, {"measurement": "toxicity on daily administration", "setting": "[2]; intraperitoneally or orally for up to 8 consecutive weeks, cumulative dose levels as high as 6.4 g/kg", "value": "not associated with any detectable toxicity"}, {"measurement": "acute or subacute toxicity", "setting": "[2]; single intraperitoneal or oral bolus dose levels as high as 500 mg/kg", "value": "very well tolerated without any detectable acute or subacute toxicity"}, {"measurement": "Hydrolysis Rate", "setting": "[3]", "value": 0.0210, "unit": "min⁻¹"}, {"measurement": "mean percent hydrolysis in plasma", "setting": "[4]; EDTA (1 mM), arylesterase, 5 min", "value": 99, "unit": "%"}, {"measurement": "mean percent hydrolysis in plasma", "setting": "[4]; EDTA (1 mM), arylesterase, 10 min", "value": 100, "unit": "%"}, {"measurement": "mean percent hydrolysis in plasma", "setting": "[4]; EDTA (1 mM), arylesterase, 15 min", "value": 100, "unit": "%"}, {"measurement": "mean percent hydrolysis in plasma", "setting": "[4]; EDTA (1 mM), arylesterase, 30 min", "value": 100, "unit": "%"}, {"measurement": "mean percent hydrolysis in plasma", "setting": "[4]; EDTA (1 mM), arylesterase, 60 min", "value": 100, "unit": "%"}, {"measurement": "mean percent hydrolysis in plasma", "setting": "[4]; EDTA (1 mM), arylesterase, 120 min", "value": 100, "unit": "%"}, {"measurement": "mean percent hydrolysis in plasma", "setting": "[4]; No inhibitor, 5 min", "value": 95, "unit": "%"}, {"measurement": "mean percent hydrolysis in plasma", "setting": "[4]; No inhibitor, 10 min", "value": 98, "unit": "%"}, {"measurement": "mean percent hydrolysis in plasma", "setting": "[4]; No inhibitor, 15 min", "value": 99, "unit": "%"}, {"measurement": "mean percent hydrolysis in plasma", "setting": "[4]; No inhibitor, 30 min", "value": 100, "unit": "%"}, {"measurement": "mean percent hydrolysis in plasma", "setting": "[4]; No inhibitor, 60 min", "value": 100, "unit": "%"}, {"measurement": "mean percent hydrolysis in plasma", "setting": "[4]; No inhibitor, 120 min", "value": 100, "unit": "%"}, {"measurement": "mean percent hydrolysis in plasma", "setting": "[4]; Paraoxon (0.1 mM), cholinesterase & carboxylesterase, 5 min", "value": 0, "unit": "%"}, {"measurement": "mean percent hydrolysis in plasma", "setting": "[4]; Paraoxon (0.1 mM), cholinesterase & carboxylesterase, 10 min", "value": 2, "unit": "%"}, {"measurement": "mean percent hydrolysis in plasma", "setting": "[4]; Paraoxon (0.1 mM), cholinesterase & carboxylesterase, 15 min", "value": 2, "unit": "%"}, {"measurement": "mean percent hydrolysis in plasma", "setting": "[4]; Paraoxon (0.1 mM), cholinesterase & carboxylesterase, 30 min", "value": 2, "unit": "%"}, {"measurement": "mean percent hydrolysis in plasma", "setting": "[4]; Paraoxon (0.1 mM), cholinesterase & carboxylesterase, 60 min", "value": 3, "unit": "%"}, {"measurement": "mean percent hydrolysis in plasma", "setting": "[4]; Paraoxon (0.1 mM), cholinesterase & carboxylesterase, 120 min", "value": 24, "unit": "%"}, {"measurement": "mean percent hydrolysis in plasma", "setting": "[4]; Physostigmine (0.1 mM), cholinesterase, 5 min", "value": 43, "unit": "%"}, {"measurement": "mean percent hydrolysis in plasma", "setting": "[4]; Physostigmine (0.1 mM), cholinesterase, 10 min", "value": 65, "unit": "%"}, {"measurement": "mean percent hydrolysis in plasma", "setting": "[4]; Physostigmine (0.1 mM), cholinesterase, 15 min", "value": 76, "unit": "%"}, {"measurement": "mean percent hydrolysis in plasma", "setting": "[4]; Physostigmine (0.1 mM), cholinesterase, 30 min", "value": 89, "unit": "%"}, {"measurement": "mean percent hydrolysis in plasma", "setting": "[4]; Physostigmine (0.1 mM), cholinesterase, 60 min", "value": 100, "unit": "%"}, {"measurement": "mean percent hydrolysis in plasma", "setting": "[4]; Physostigmine (0.1 mM), cholinesterase, 120 min", "value": 100, "unit": "%"}]}
